Patent publication US7772263B2, “Compounds for the treatment of inflammatory disorders” (Schering Corporation, priority 2006, dated 2010)
Like-named read-outs stand apart in the source and are kept apart here.

Biological target: T1, purified catalytic domain of recombinant human TACE (rhTACEc) (Homo sapiens, UniProt P78536, N452Q/S266A)
T1 construct: rhTACEc, Residue 215 to 477 with two mutation (S266A and N4520) and a 6×His tail; 6xHis (C); made in house; host or cells: baculovirus/Hi5 insect cells
T1 sequence (P78536 215-477 S266A/N452Q limits assumed): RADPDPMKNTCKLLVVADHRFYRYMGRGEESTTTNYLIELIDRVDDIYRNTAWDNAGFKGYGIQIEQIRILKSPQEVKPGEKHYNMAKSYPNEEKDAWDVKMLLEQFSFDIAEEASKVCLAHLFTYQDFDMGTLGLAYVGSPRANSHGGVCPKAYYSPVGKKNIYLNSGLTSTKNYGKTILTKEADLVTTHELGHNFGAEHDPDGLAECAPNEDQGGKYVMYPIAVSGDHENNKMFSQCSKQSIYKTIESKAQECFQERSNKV
Assay: TACE kinetic assay, cleavage of internally quenched fluorescent peptide substrate SPDL-3
Type: biochemical

[1] = TACE inhibition, Table 1001, read-out: Ki Rating
[2] = rhTACEc 70 pM, 30 μM SPDL-3, 90 min pre-incubation at 25° C., read-out: Ki (nM), TACE inhibitory activity

Ki [1] [nM] | SMILES | further results
< 5 | COc1ccc2c(c1)C(=O)N(C[C@@]1(C#Cc3ccsc3)NC(=O)NC1=O)C2 [Compound 464] | 
< 5 | COc1ccc2c(c1)C(=O)N(C[C@@]1(C#Cc3csc(C(C)C)n3)NC(=O)NC1=O)C2 [Compound 465] | 
< 5 | COc1ccc2c(c1)C(=O)N(C[C@@]1(C#Cc3c(F)ccc(F)c3F)NC(=O)NC1=O)C2 [Compound 466] | 
< 5 | COc1ccc2c(c1)C(=O)N(C[C@@]1(C#Cc3csc(C)n3)NC(=O)NC1=O)C2 [Compound 467] | 
< 5 | COc1ccc2c(c1)C(=O)N(C[C@@]1(C#Cc3ncccn3)NC(=O)NC1=O)C2 [Compound 468] | 
< 5 | COc1ccc2c(c1)C(=O)N(C[C@@]1(C#Cc3cnccn3)NC(=O)NC1=O)C2 [Compound 469] | 
< 5 | COc1ccc2c(c1)C(=O)N(C[C@@]1(C#Cc3ncnc4ccccc34)NC(=O)NC1=O)C2 [Compound 470] | 
< 5 | COc1ccc2c(c1)C(=O)N(C[C@@]1(C#Cc3cnc(C)s3)NC(=O)NC1=O)C2 [Compound 471] | 
< 5 | COc1ccc2c(c1)C(=O)N(C[C@@]1(C#Cc3ccc(C4CC4)nc3)NC(=O)NC1=O)C2 [Compound 472] | 
< 5 | COc1ccc2c(c1)C(=O)N(C[C@@]1(C#Cc3cncc(-n4ccnc4C)c3)NC(=O)NC1=O)C2 [Compound 482C] | 
< 5 | COc1ccc2c(c1)C(=O)N(C[C@@]1(C#Cc3ccc(OC(F)(F)F)cc3)NC(=O)NC1=O)C2 [Compound 484] | 
< 5 | COc1ccc2c(c1)C(=O)N(C[C@@]1(C#Cc3ccc(C(F)(F)F)cc3)NC(=O)NC1=O)C2 [Compound 486] | 
< 5 | COc1ccc2c(c1)C(=O)N(C[C@@]1(C#Cc3cnn(C)c3)NC(=O)NC1=O)C2 [Compound 487] | 
< 5 | COc1ccc2c(c1)C(=O)N(C[C@@]1(C#Cc3cccc(F)c3Cl)NC(=O)NC1=O)C2 [Compound 493] | 
< 5 | COc1ccc2c(c1)C(=O)N(C[C@@]1(C#Cc3ccc4nc(N)sc4c3)NC(=O)NC1=O)C2 [Compound 494] | 
< 5 | COc1ccc2c(c1)C(=O)N(C[C@@]1(C#Cc3ccc(C)nc3C)NC(=O)NC1=O)C2 [Compound 496] | 
< 5 | COc1ccc2c(c1)C(=O)N(C[C@@]1(C#Cc3cc(F)ccc3C)NC(=O)NC1=O)C2 [Compound 498] | 
< 5 | COc1ccc2c(c1)C(=O)N(C[C@@]1(C#Cc3ccc(Cl)cc3F)NC(=O)NC1=O)C2 [Compound 499] | 
< 5 | COc1ccc2c(c1)C(=O)N(C[C@@]1(C#Cc3cccc4nc(N)sc34)NC(=O)NC1=O)C2 [Compound 503] | 
< 5 | COc1ccc2c(c1)C(=O)N(C[C@@]1(C#Cc3ccc4nc(NC5CC5)sc4c3)NC(=O)NC1=O)C2 [Compound 504] | 
< 5 | COc1ccc2c(c1)C(=O)N(C[C@@]1(C#Cc3ccc4sc(N)nc4c3)NC(=O)NC1=O)C2 [Compound 505] | 

Ki [1] [nM] | SMILES | further results
< 5 | COc1cncc(C#C[C@]2(CN3Cc4ccc(OC)cc4C3=O)NC(=O)NC2=O)c1 [Compound 506] | 
< 5 | CNc1nc2cccc(C#C[C@]3(CN4Cc5ccc(OC)cc5C4=O)NC(=O)NC3=O)c2s1 [Compound 507] | 
< 5 | CNc1nc2cc(C#C[C@]3(CN4Cc5ccc(OC)cc5C4=O)NC(=O)NC3=O)ccc2s1 [Compound 508] | 
< 5 | COc1ccc2c(c1)C(=O)N(C[C@@]1(C#Cc3ccc4nc(C)sc4c3)NC(=O)NC1=O)C2 [Compound 509] | 
< 5 | COc1ccc2c(c1)C(=O)N(C[C@@]1(C#Cc3ccc(F)c(Cl)c3)NC(=O)NC1=O)C2 [Compound 510] | 
< 5 | COc1ccc2c(c1)C(=O)N(C[C@@]1(C#Cc3ccccc3C(F)(F)F)NC(=O)NC1=O)C2 [Compound 514] | 
< 5 | COc1ccc2c(c1)C(=O)N(C[C@@]1(C#Cc3ccccc3OC(F)(F)F)NC(=O)NC1=O)C2 [Compound 515] | 
< 5 | COc1ccc2c(c1)C(=O)N(C[C@@]1(C#Cc3ccc(C(F)(F)F)nc3)NC(=O)NC1=O)C2 [Compound 519] | 
< 5 | COc1ccc2c(c1)C(=O)N(C[C@@]1(C#Cc3sc4ccc(Cl)cc4c3C)NC(=O)NC1=O)C2 [Compound 520] | 
< 5 | COc1ccc2c(c1)C(=O)N(C[C@@]1(C#Cc3ccc(S(N)(=O)=O)s3)NC(=O)NC1=O)C2 [Compound 522] | 
< 5 | COc1ccc2c(c1)C(=O)N(C[C@@]1(C#Cc3ccc(C)nn3)NC(=O)NC1=O)C2 [Compound 523] | 
< 5 | COc1ccc2c(c1)C(=O)N(C[C@@]1(C#Cc3ccc4nc(C(F)(F)F)n(C)c4c3)NC(=O)NC1=O)C2 [Compound 525] | 
< 5 | COc1ccc2c(c1)C(=O)N(C[C@@]1(C#Cc3cc(C)c4nn(C)cc4c3)NC(=O)NC1=O)C2 [Compound 527] | 
< 5 | COc1ccc2c(c1)C(=O)N(C[C@@]1(C#Cc3ccc(S(C)(=O)=O)s3)NC(=O)NC1=O)C2 [Compound 531] | 
< 5 | COc1ccc2c(c1)C(=O)N(C[C@@]1(C#Cc3csc4ccccc34)NC(=O)NC1=O)C2 [Compound 532] | 
< 5 | COc1ccc2c(c1)C(=O)N(C[C@@]1(C#Cc3csc(C)c3)NC(=O)NC1=O)C2 [Compound 533] | 
< 5 | COc1ccc2c(c1)C(=O)N(C[C@@]1(C#Cc3ccc(=O)[nH]c3)NC(=O)NC1=O)C2 [Compound 536] | 
< 5 | COc1ccc2c(c1)C(=O)N(C[C@@]1(C#Cc3ccc(C(N)=O)s3)NC(=O)NC1=O)C2 [Compound 538] | 
< 5 | COc1ccc2c(c1)C(=O)N(C[C@@]1(C#Cc3ccc[n+]([O-])c3)NC(=O)NC1=O)C2 [Compound 539] | 
< 5 | COc1ccc2c(c1)C(=O)N(C[C@@]1(C#Cc3cnc(O)cc3C)NC(=O)NC1=O)C2 [Compound 555] | 
< 5 | COc1ccc2c(c1)C(=O)N(C[C@@]1(C#Cc3cn[nH]c3)NC(=O)NC1=O)C2 [Compound 900] | 

The next lines start with the compound.

SMILES | Ki [1] [nM] | further results
COc1ccc2c(c1)C(=O)N(C[C@@]1(C#Cc3cccs3)NC(=O)NC1=O)C2 [Compound 463] | < 5 | 
COc1ccc2c(c1)C(=O)N(C[C@@]1(C#Cc3cncc(C4(N)CC4)c3)NC(=O)NC1=O)C2 [Compound 480] | < 5 | 
COc1ccc2c(c1)C(=O)N(C[C@@]1(C#Cc3cncc(C#N)c3)NC(=O)NC1=O)C2 [Compound 481] | < 5 | 
COc1ccc2c(c1)C(=O)N(C[C@@]1(C#Cc3cncc(-n4cccn4)c3)NC(=O)NC1=O)C2 [Compound 482B] | < 5 | 
COc1ccc2c(c1)C(=O)N(C[C@@]1(C#Cc3cncc(N4CCOCC4)c3)NC(=O)NC1=O)C2 [Compound 482] | < 5 | 
COc1ccc2c(c1)C(=O)N(C[C@@]1(C#Cc3ccc(F)c(F)c3)NC(=O)NC1=O)C2 [Compound 483] | < 5 | 
COc1ccc2c(c1)C(=O)N(C[C@@]1(C#Cc3ccc(Cl)cc3)NC(=O)NC1=O)C2 [Compound 485] | < 5 | 
COc1ccc2c(c1)C(=O)N(C[C@@]1(C#Cc3cccc(Cl)c3F)NC(=O)NC1=O)C2 [Compound 488] | < 5 | 
COc1ccc2c(c1)C(=O)N(C[C@@]1(C#Cc3cccc(F)c3F)NC(=O)NC1=O)C2 [Compound 489] | < 5 | 
COc1ccc2c(c1)C(=O)N(C[C@@]1(C#Cc3ccc(F)cc3F)NC(=O)NC1=O)C2 [Compound 490] | < 5 | Ki [2]: 0.23 nM
COc1ccc2c(c1)C(=O)N(C[C@@]1(C#Cc3c(F)cccc3F)NC(=O)NC1=O)C2 [Compound 491] | < 5 | 
COc1ccc2c(c1)C(=O)N(C[C@@]1(C#Cc3c(F)cc(F)cc3F)NC(=O)NC1=O)C2 [Compound 492] | < 5 | 
COc1ccc2c(c1)C(=O)N(C[C@@]1(C#Cc3ccc4sc(C)nc4c3)NC(=O)NC1=O)C2 [Compound 495] | < 5 | 
COc1ccc2c(c1)C(=O)N(C[C@@]1(C#Cc3cc(C)ccc3F)NC(=O)NC1=O)C2 [Compound 497] | < 5 | 
COc1ccc2c(c1)C(=O)N(C[C@@]1(C#Cc3ccc(C)cc3F)NC(=O)NC1=O)C2 [Compound 500] | < 5 | 
COc1ccc2c(c1)C(=O)N(C[C@@]1(C#Cc3ccc(C)s3)NC(=O)NC1=O)C2 [Compound 513] | < 5 | 
COc1ccc2c(c1)C(=O)N(C[C@@]1(C#Cc3ccccc3F)NC(=O)NC1=O)C2 [Compound 516] | < 5 | Ki (Ki (nM), TACE inhibitory activity, rhTACEc 70 pM, 30 μM SPDL-3, 90 min pre-incubation at 25° C.): 0.13 nM
COc1ccc2c(c1)C(=O)N(C[C@@]1(C#Cc3cc(F)ccc3Cl)NC(=O)NC1=O)C2 [Compound 517] | < 5 | 
COc1ccc2c(c1)C(=O)N(C[C@@]1(C#Cc3cc(Cl)ccc3F)NC(=O)NC1=O)C2 [Compound 518] | < 5 | 
COc1ccc2c(c1)C(=O)N(C[C@@]1(C#Cc3cc(F)ccc3F)NC(=O)NC1=O)C2 [Compound 521] | < 5 | 
COc1ccc2c(c1)C(=O)N(C[C@@]1(C#Cc3cc(C)c4c(cnn4C)c3)NC(=O)NC1=O)C2 [Compound 524] | < 5 | 
COc1ccc2c(c1)C(=O)N(C[C@@]1(C#Cc3ccc4sccc4c3)NC(=O)NC1=O)C2 [Compound 526] | < 5 | 
COc1ccc2c(c1)C(=O)N(C[C@@]1(C#Cc3csc(C(F)F)c3)NC(=O)NC1=O)C2 [Compound 528] | < 5 | 
COc1ccc2c(c1)C(=O)N(C[C@@]1(C#Cc3ccc(C(F)(F)F)s3)NC(=O)NC1=O)C2 [Compound 529] | < 5 | 
COc1ccc2c(c1)C(=O)N(C[C@@]1(C#Cc3ccc(C(F)(F)F)cc3F)NC(=O)NC1=O)C2 [Compound 530] | < 5 | 
COc1ccc2c(c1)C(=O)N(C[C@@]1(C#Cc3cccc(=O)[nH]3)NC(=O)NC1=O)C2 [Compound 535] | < 5 | 
COc1ccc2c(c1)C(=O)N(C[C@@]1(C#Cc3ccsc3C(N)=O)NC(=O)NC1=O)C2 [Compound 537] | < 5 | 
COc1ccc2c(c1)C(=O)N(C[C@@]1(C#Cc3cccn(C)c3=O)NC(=O)NC1=O)C2 [Compound 540] | < 5 | 
COc1ccc2c(c1)C(=O)N(C[C@@]1(C#Cc3cncc(N)c3)NC(=O)NC1=O)C2 [Compound 554] | < 5 | Ki [2]: 0.31 nM
